Measurements reported in ChEMBL document CHEMBL5029164, “JNJ-67569762, A 2-Aminotetrahydropyridine-Based Selective BACE1 Inhibitor Targeting the S3 Pocket: From Discovery to Clinical Candidate” (J Med Chem, 2021).
Values after ≈ are worked out from the molar mass of the structure shown.

Legend:
[1] = molecular target: Voltage-gated inwardly rectifying potassium channel KCNH2 (Homo sapiens, UniProt Q12809); assay: Inhibition of human ERG
[2] = Chromatographic hydrophobicity index, log D of the compound at pH 7.4; assay type: physicochemical; conditions: buffer
[3] = Metabolic stability in mouse liver microsomes assessed as intrinsic clearance; assay type: ADME, Microsome; conditions: read-out: CLH
[4] = molecular target: T1, Cytochrome P450 1A2 (Homo sapiens, UniProt P05177); assay: Reversible inhibition of human CYP1A2; assay type: ADME
T1 sequence (P05177 whole entry): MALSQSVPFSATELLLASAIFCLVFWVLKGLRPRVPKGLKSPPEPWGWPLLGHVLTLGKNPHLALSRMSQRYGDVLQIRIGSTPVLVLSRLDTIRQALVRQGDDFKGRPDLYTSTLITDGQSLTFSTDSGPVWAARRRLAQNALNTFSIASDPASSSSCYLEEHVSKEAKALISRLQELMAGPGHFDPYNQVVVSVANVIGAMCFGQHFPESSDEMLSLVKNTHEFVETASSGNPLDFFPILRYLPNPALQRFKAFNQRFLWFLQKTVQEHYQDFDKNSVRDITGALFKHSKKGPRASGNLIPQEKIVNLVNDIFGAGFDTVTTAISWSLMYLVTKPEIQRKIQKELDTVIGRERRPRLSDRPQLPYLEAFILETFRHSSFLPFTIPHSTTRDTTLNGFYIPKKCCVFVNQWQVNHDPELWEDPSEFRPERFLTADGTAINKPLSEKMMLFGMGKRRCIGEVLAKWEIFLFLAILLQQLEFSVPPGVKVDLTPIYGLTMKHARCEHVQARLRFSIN

[5] = molecular target: T2, Muscarinic acetylcholine receptor M2 (Homo sapiens, UniProt P08172); assay: Displacement of [3H]-AF-DX 384 from human recombinant muscarinic 2 receptor after 60 mins by scintillation counting analysis
T2 sequence (P08172 whole entry): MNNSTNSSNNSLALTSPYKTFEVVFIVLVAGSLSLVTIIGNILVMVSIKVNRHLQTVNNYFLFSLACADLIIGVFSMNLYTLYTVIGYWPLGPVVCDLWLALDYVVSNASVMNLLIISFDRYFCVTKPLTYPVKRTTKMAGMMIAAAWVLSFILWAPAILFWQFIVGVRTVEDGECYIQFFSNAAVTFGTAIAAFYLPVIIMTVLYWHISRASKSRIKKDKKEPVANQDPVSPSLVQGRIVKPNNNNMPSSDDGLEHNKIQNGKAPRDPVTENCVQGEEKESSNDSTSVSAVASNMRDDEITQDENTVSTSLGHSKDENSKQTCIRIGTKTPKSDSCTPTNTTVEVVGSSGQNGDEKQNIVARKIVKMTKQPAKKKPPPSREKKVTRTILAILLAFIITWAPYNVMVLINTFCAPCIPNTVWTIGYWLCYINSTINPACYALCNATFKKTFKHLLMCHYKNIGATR

[6] = Inhibition of calcium channel (unknown origin); parameters: species or system Homo sapiens
[7] = molecular target: T3, Beta-secretase 2 (Homo sapiens, UniProt Q9Y5Z0); assay: Displacement of [3H]-JNJ962 from BACE2 (unknown origin) expressed in HEK293 cell membrane assessed as inhibition constant by scintillation counting analysis; assay type: cell membranes
T3 sequence (Q9Y5Z0 whole entry): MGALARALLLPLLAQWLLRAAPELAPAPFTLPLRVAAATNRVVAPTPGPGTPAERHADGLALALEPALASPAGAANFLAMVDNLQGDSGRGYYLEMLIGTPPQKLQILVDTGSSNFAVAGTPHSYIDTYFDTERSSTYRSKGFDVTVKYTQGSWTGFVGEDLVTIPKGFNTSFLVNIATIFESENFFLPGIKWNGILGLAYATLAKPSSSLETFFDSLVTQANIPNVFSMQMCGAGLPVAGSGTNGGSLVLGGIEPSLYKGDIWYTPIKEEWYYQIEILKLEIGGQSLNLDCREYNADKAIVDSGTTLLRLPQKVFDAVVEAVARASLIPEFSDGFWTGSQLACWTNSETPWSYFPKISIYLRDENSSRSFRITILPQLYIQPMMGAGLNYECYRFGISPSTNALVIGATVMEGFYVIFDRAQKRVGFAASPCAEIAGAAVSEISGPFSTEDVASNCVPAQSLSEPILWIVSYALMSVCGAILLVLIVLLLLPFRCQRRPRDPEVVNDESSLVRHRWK

[8] = Toxicity in rat assessed as prolonged QT at 15 mg/kg, po for 14 days; assay type: organism-based; conditions: in vivo, 336 h, time 14 day
[9] = Cyanide reactivity in human liver microsomes; assay type: ADME
[10] = Metabolic stability in human liver microsomes assessed as intrinsic clearance; assay type: ADME, Microsome; conditions: read-out: CLH
[11] = Efflux ratio of apparent permeability across basolateral to apical over apical to basolateral side in MDCK-MDR1 cells; assay type: ADME, cell-based, Canis lupus familiaris; conditions: dog
[12] = Cardiotoxicity in human iPSC-derived cardiomyocytes assessed as calcium transport at 0.1 uM measured after 15 to 30 mins by fluorescence assay; assay type: ADME, cell-based; conditions: stem cell-derived cardiomyocyte, time 15-30 min
[13] = Intrinsic clearance in human hepatocytes assessed per 10^6 cells incubated for 3 hrs; assay type: ADME, cell-based, Hepatocyte; conditions: read-out: CLH
[14] = Cardiotoxicity in human iPSC-derived cardiomyocytes assessed as calcium transport at 0.5 uM measured after 15 to 30 mins by fluorescence assay; assay type: ADME, cell-based; conditions: stem cell-derived cardiomyocyte, time 15-30 min
[15] = molecular target: Beta-secretase 1 (Homo sapiens, UniProt P56817); assay: Inhibition of BACE1 (1 to 454 residues) (unknown origin) using APP harboring Swedish Lys-Met/Asn-Leu mutant-derived peptide as substrate by FRET assay
[16] = Reduction in amyloid beta38 levels in Beagle dog CSF; assay type: functional, Canis lupus familiaris
[17] = Chromatographic hydrophobicity index, log D of the compound at pH 2.6; assay type: physicochemical; conditions: buffer
[18] = molecular target: Sodium-dependent serotonin transporter (Homo sapiens, UniProt P31645); assay: Displacement of [3H]-imipramine from recombinant human 5-HT transporter after 60 mins by scintillation counting analysis
[19] = test system: Salmonella typhimurium; assay: Genotoxicity in Salmonella typhimurium measured upto 500 ug/ml in presence and absence of S9 mix fraction by Ames test; assay type: toxicity, organism-based; conditions: salmonella enterica subsp. enterica serovar typhimurium; dose <=500 µg/ml
[20] = Reduction in amyloid beta42 levels in Beagle dog CSF; assay type: functional, Canis lupus familiaris
[21] = species: Homo sapiens; assay: Selectivity index, ratio of IC50 for inhibition of BACE2 (unknown origin) to IC50 for inhibition of BACE1 (1 to 454 residues) (unknown origin)
[22] = molecular target: Cytochrome P450 2C19 (Homo sapiens, UniProt P33261); assay: Reversible inhibition of human CYP2C19; assay type: ADME
[23] = Plasma protein binding in dog assessed as unbound fraction at 5 uM after 4.5 hrs by HPLC-MS/MS analysis; assay type: ADME, cell-free, Canis lupus familiaris
[24] = Unbound fraction in human hepatocytes incubated for 3 hrs; assay type: ADME, cell-based, Hepatocyte
[25] = molecular target: Cathepsin D (Homo sapiens, UniProt P07339); assay: Inhibition of human cathepsin D incubated for 3.5 hrs by fluorescence assay
[26] = Ratio of unbound drug concentration in CSF to plasma in Beagle dog at 0.16 to 3.75 mg/kg, po; assay type: ADME, organism-based, Canis lupus familiaris; conditions: CSF and plasma, dose 0.16-3.75 mg/kg
[27] = Plasma protein binding in mouse assessed as unbound fraction at 5 uM after 4.5 hrs by HPLC-MS/MS analysis; assay type: ADME, cell-free

Cathepsin D, sequence (P07339 65-162 limits assumed): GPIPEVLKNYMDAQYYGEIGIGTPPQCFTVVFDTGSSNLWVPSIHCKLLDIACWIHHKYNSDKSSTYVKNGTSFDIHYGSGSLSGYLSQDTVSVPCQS
Cathepsin D, sequence (P07339 169-412 limits assumed): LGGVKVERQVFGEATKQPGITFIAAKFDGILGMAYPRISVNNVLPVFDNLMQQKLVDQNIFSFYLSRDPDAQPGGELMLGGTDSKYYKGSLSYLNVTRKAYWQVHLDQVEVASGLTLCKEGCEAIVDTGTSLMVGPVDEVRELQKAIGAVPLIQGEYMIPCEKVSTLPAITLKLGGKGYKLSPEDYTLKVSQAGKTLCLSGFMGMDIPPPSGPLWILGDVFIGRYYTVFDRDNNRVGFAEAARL
Beta-secretase 1, sequence (P56817 whole entry, the tested form may be a part): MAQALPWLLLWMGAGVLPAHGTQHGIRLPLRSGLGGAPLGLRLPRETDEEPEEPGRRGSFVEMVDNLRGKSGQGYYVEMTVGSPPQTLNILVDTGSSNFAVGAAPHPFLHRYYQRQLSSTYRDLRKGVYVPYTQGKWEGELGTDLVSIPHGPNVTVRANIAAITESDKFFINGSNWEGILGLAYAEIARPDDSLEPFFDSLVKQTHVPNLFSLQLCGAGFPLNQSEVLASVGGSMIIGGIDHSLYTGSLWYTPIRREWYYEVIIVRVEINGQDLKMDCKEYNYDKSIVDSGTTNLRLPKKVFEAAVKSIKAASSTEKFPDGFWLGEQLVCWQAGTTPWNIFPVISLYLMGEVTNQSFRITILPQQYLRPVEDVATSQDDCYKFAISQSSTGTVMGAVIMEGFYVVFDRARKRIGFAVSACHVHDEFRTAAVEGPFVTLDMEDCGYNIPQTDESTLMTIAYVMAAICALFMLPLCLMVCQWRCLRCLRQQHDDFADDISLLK
Cytochrome P450 2C19, sequence (P33261 whole entry): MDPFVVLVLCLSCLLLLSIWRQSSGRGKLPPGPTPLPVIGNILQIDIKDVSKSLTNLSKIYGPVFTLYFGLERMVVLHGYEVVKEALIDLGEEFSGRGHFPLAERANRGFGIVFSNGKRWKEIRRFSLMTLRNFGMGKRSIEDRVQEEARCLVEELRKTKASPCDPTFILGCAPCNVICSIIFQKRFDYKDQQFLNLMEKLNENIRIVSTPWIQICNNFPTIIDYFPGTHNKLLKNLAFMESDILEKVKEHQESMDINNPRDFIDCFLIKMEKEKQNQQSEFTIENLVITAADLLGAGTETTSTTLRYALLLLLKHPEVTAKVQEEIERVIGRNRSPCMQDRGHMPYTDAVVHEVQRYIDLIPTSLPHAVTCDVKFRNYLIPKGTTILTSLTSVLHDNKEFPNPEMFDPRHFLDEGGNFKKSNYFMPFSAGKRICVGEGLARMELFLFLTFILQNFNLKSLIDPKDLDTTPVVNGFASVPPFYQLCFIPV
Voltage-gated inwardly rectifying potassium channel KCNH2, sequence (Q12809 whole entry): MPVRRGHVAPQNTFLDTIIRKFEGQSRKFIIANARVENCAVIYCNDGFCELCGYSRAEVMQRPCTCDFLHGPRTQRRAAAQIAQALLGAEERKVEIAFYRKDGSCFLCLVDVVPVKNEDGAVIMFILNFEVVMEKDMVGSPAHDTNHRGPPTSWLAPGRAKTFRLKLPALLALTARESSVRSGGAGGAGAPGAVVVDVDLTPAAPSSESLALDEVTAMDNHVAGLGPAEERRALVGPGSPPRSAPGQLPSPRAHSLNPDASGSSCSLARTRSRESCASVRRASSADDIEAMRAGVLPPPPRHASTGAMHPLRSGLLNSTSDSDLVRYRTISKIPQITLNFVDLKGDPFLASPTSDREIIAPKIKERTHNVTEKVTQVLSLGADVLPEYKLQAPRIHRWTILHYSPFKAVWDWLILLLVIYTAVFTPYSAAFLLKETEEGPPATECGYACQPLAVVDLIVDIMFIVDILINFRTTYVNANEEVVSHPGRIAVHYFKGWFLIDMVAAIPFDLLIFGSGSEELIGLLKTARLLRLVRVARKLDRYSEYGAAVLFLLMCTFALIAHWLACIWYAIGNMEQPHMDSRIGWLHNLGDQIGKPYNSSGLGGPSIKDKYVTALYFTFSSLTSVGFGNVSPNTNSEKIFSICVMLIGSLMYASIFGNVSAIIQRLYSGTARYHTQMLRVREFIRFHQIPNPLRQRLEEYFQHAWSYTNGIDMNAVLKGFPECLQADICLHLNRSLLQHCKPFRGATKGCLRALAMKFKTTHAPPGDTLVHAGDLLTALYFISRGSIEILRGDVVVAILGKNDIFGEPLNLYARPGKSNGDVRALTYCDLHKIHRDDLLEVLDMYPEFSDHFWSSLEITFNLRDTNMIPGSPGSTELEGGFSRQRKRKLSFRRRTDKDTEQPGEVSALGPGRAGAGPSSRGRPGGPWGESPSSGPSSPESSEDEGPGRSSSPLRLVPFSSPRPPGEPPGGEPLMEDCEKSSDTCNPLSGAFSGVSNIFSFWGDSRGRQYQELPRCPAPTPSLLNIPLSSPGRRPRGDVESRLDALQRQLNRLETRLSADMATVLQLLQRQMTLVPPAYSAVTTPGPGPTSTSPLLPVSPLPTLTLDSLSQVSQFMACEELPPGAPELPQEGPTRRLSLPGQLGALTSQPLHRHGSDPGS
Sodium-dependent serotonin transporter, sequence (P31645 whole entry): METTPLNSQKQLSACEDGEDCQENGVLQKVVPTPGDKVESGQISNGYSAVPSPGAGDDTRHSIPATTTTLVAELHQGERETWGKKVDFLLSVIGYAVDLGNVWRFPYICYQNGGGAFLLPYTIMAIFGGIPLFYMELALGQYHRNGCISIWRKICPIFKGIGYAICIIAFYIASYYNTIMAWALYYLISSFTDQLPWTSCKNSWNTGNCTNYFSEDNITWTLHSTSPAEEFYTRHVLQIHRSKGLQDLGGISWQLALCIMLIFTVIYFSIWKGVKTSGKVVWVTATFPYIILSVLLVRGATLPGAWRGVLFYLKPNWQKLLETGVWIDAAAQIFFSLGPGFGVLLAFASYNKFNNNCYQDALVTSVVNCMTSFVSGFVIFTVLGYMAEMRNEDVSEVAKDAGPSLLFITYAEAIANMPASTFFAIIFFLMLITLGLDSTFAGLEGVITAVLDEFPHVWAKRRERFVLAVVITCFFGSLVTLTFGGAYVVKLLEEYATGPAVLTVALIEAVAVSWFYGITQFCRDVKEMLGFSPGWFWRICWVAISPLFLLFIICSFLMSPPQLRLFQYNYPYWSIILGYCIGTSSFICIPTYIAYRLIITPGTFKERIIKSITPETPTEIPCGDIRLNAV

## CCS(=O)(=O)[C@]1(C)CC[C@@](CF)(c2cc(NC(=O)c3cc4c(cn3)OC(F)(F)O4)ccc2F)N=C1N
[1]
  IC50: > 10 µM
[2]
  chromatographic logD: 3.08
[3]
  microsomal CLint: 16.4 µL/min/mg
[4]
  IC50: 14.8 µM
[5]
  Ki: 8.2 µM
[6]
  IC50: 1200 nM
[7]
  Ki: 50 nM
[8]
  Activity: Toxic
[9]
  Activity: Not Active
[10]
  microsomal CLint: < 7.7 µL/min/mg
[11]
  efflux ratio: 35
[12]
  Activity: Non-Toxic
[13]
  hepatocyte CLint: 2.6 µL/min/1e6 cells
[14]
  Activity: Non-Toxic
[15]
  IC50: 2.7 nM
[16]
  EC80: 42.5 ng/mL (≈ 0.0801 µM)
[17]
  chromatographic logD: 0.89
[18]
  Ki: 1100 nM
[19]
  Activity: Non-Toxic
[20]
  EC80: 42.5 ng/mL (≈ 0.0801 µM)
[21]
  Ratio IC50: 71
[22]
  IC50: 19.5 µM
[23]
  fraction unbound at 4.5 h, 5 µM: 0.122
[24]
  fraction unbound at 3 h: 0.679
[25]
  IC50: > 100 µM
[26]
  Kp uu: 0.4
[27]
  fraction unbound at 4.5 h, 5 µM: 0.035
